We go through 2 compounds from patent publication US20030143634A1, “Method to detect interactions between cellular components in intact living cells, and to extract quantitative information relating to those interactions by fluorescence redistribution” (Biolmage A/S, priority 2001, published 2003).

Structures are written as SMILES.

In assay [1] the target is T1, FRB(T2098L) and FKBP (Homo sapiens, UniProt P42345+P62942, T2098L).
T1 construct: expressed in transfected cells; host or cells: CHO
Put plainly: 2-part Histone H2B system, response to dimerizer and competition by FK506. It counts as cell-based. Conditions: CHO cells. On the procedure:
The 2-part assay also acts as counter screen for any compounds that may directly or indirectly affect the location of the anchor protein itself within the cell.
(§1) For compatibility with high throughput screening the cells were grown in microtitre plates for 16 hours from a seeding density of 1.0×10E5 cells per 400 μL, and an extraction procedure (described in Example 3) was used to remove mobile fluorescent components from cells, so that signal from immobile components locked in the nucleus could be measured. Plates were routinely stained with the nuclear dye Hoechst 22538 to enable correction of the immobile EGFP fluorescence signal from each well for cell density.
Signals from immobile EGFP-labelled components and from the nuclear stain were read on an fluorescence plate reader (Fluoroskan Ascent CF, Labsystems, Finland) equipped with appropriate filter sets (EGFP: excitation 485 nm, emission 527 nm; Hoechst 22538: excitation 355 nm, emission 460 nm).

Assay [2] deals with T1, FRB(T2098L) and FKBP. Put plainly: 3-part ActinPaint iGRIP system, response to dimerizer. It counts as cell-based. Conditions: CHO cells, 800 nM AP21967, 37° C. The text has this:
(§2) In this specific example, the 3 components of this second system were as follows:
(§3) 1) The anchor conjugate was made by fusing the F-actin binding domain of α-actinin (amino acids 1-133 of full protein sequence) to FRB(T2098L) [ps1570] (also referred to as FRB*). The cellular localization of the anchor could be detected with an antibody directed against the HA-tag included in the anchor fusion protein
(§4) 2) The mediator conjugate [ps1556] comprised wild-type FKBP protein fused to tandem repeats of FKBP(F36M), a mutant form of the protein that is known as FM and also CAD, and the coding plasmid for which was obtained from ARIAD Pharmaceuticals
(§5) 3) The detectable conjugate was made by fusing tandem repeats of CAD to EGFP [ps1547].
The three conjugates are depicted in diagrammatic form in FIG. 5a. […]
(§6) For compatibility with high throughput screening the cells were grown in microtitre plates for 16 hours from a seeding density of 1.0×10E5 cells per 400 μL, and an extraction procedure (described in Example 3) was used to remove mobile fluorescent components from cells, so that signal from immobile components could be measured. Plates were routinely stained with the nuclear dye Hoechst 22538 to enable correction of the immobile EGFP fluorescence signal from each well for cell density. […]

Assay [3] addresses T1, FRB(T2098L) and FKBP. Put plainly: 2-part ActinPaint system, response to dimerizer. Format: cell-based. Conditions: CHO cells. Here is the method: The first system consists of 2 parts, an anchor conjugated to FRB(T2098L) [plasmid construct ps1570] and a detectable conjugate comprising FKBP fused to EGFP [ps1208]—these conjugates are depicted in FIG. 4a. […] The 2-part assay also acts as counter screen for any compounds that may directly or indirectly affect the location of the anchor protein itself within the cell.
For compatibility with high throughput screening the cells were grown in microtitre plates for 16 hours from a seeding density of 1.0×10E5 cells per 400 μL, and an extraction procedure (described in Example 3) was used to remove mobile fluorescent components from cells, so that signal from immobile components could be measured. Plates were routinely stained with the nuclear dye Hoechst 22538 to enable correction of the immobile EGFP fluorescence signal from each well for cell density.
Signals from immobile EGFP-labelled components and from the nuclear stain were read on an fluorescence plate reader (Fluoroskan Ascent CF, Labsystems, Finland) equipped with appropriate filter sets (EGFP: excitation 485 nm, emission 527 nm; Hoechst 22538: excitation 355 nm, emission 460 nm). […] For further experiments a dimerizer concentration of 800 nM for 2 hours was selected as giving adequate signal to background for extracted cells to be read on the Ascent plate reader.

The target of assay [4] is T1, FRB(T2098L) and FKBP. Put plainly: 2-part Src(1-14) system, response to dimerizer. It counts as cell-based. The note with it: CHO cells, 500 nM AP21967 for 60 minutes. The text has this: The first system consists of 2 parts, an anchor conjugated to FRB(T2098L) [plasmid construct ps1549] and a detectable conjugate comprising FKBP fused to EGFP [ps1208]. […] The 2-part assay also acts as counter screen for any compounds that may directly or indirectly affect the location of the anchor protein itself within the cell.
CHO cells were transfected and cultured essentially as described in Example 2, except the complement of plasmids required for the 2 and 3-part systems were transfected simultaneously rather than sequentially (as described in Example 2).
For selection of co-expressing cells, 2-part system cells transfected with ps1549+ps1208 were cultured with 1 mg/ml zeocin+5 μg/ml blasticidin HCl. Cells of the 3-part system were cultured with 1 mg/ml zeocin+5 μg/ml blasticidin HCl+0.5 mg/ml G418 sulphate.
This redistribution response to dimerizer is robust and can be competed by FK506. In the 3-part system, the response can also be competed by compound AP21998.
Without dimerizer present in the medium, cells from both 2- and 3-part Src(1-14) systems display a more or less uniform distribution of GFP fluorescence, throughout cytoplasmic and nuclear compartments (FIGS. 23a and 24a). Dimerizer addition results in recruitment of the CAD-linked mediator+detectable complexes to the plasma membrane (FIGS. 23b and 24b). […]

For assay [5], the target named is T1, FRB(T2098L) and FKBP. Put plainly: 3-part Src(1-14) system, response to dimerizer. It counts as cell-based. The note with it: CHO cells, 500 nM AP21967 for 120 minutes.
Text: as §2
1) The anchor conjugate was made by fusing c-Src(1-14) to FRB(T2098L) [ps1549]. The cellular localization of the anchor could be detected with an antibody directed against the HA-tag included in the anchor fusion protein
as §4, §5
The three conjugates are depicted in diagrammatic form in FIG. 5a. CAD proteins spontaneously homodimerize, so mediator and detectable conjugates are normally linked together in the 3-part system (FIG. 5b). Therefore in this example, the protein interaction to be tested was the CAD:CAD link between mediator and detectable conjugates. […] The link between CAD proteins can be broken by ARIAD compound AP21998 (FIG. 5d). AP21998 was therefore used as the reference compound to validate the system. […]
Without dimerizer present in the medium, cells from both 2- and 3-part Src(1-14) systems display a more or less uniform distribution of GFP fluorescence, throughout cytoplasmic and nuclear compartments (FIGS. 23a and 24a). […]

Assay [6] concerns the target T2, CAD:CAD link between mediator and detectable conjugates (Homo sapiens, UniProt P62942, F37M).
T2 construct: expressed in transfected cells; host or cells: CHO
As to the kind of experiment: 3-part ActinPaint iGRIP system, interaction inhibitor dose-response (extraction procedure, plate reader). Format: cell-based. The note with it: CHO cells.
Text: as §2, §3, §4, §5
The three conjugates are depicted in diagrammatic form in FIG. 5a. CAD proteins spontaneously homodimerize, so mediator and detectable conjugates are normally linked together in the 3-part system (FIG. 5b). Therefore in this example, the protein interaction to be tested was the CAD:CAD link between mediator and detectable conjugates. […] The link between CAD proteins can be broken by ARIAD compound AP21998 (FIG. 5d). AP21998 was therefore used as the reference compound to validate the system. CHO cells were transfected and cultured essentially as described in Example 2, except the complement of plasmids required for the 2 and 3-part systems were transfected simultaneously rather than sequentially (as described in Example 2).
as §6
ActinPaint system. […] Plates were processed for extraction and nuclear staining then read in an Ascent plate reader. […]

For assay [7], the system named is transcription factor-based detection system. The note with it: data supplied by ARIAD Pharmaceuticals (RPD kit fact sheet); cited from earlier work.
Assay [8] deals with T2, CAD:CAD link between mediator and detectable conjugates. As to the kind of experiment: 3-part Histone H2B iGRIP system, interaction inhibitor dose-response (extraction procedure, plate reader). It counts as cell-based. Conditions: CHO cells.
Text: as §2
1) The anchor conjugate was made by fusing histone H2B to FRB(T2098L) [ps1569] (also referred to as FRB*). The cellular localization of the anchor could be detected with an antibody directed against the HA-tag included in the anchor fusion protein
as §4, §5
The three conjugates are depicted in diagrammatic form in FIG. 5a. CAD proteins spontaneously homodimerize, so mediator and detectable conjugates are normally linked together in the 3-part system (FIG. 5b). Therefore in this example, the protein interaction to be tested was the CAD:CAD link between mediator and detectable conjugates. […] The link between CAD proteins can be broken by ARIAD compound AP21998 (FIG. 5d). AP21998 was therefore used as the reference compound to validate the system.
as §1
Dose-response of this CAD-interaction inhibitor in the 3-part Histone H2B system could be compared with the compound's efficacy and potency in other systems, to determine if similar sensitivity to the inhibitor (and other inhibitors) could be expected from the Histone H2B system. […] Plates were processed for extraction and nuclear staining then read in an Ascent plate reader. […]

[9] abbreviates: 1000 nM AP21967, 2 hours, extraction procedure.
Where [10] appears, read: AP21998 greater than 5 μM plus 800 nM AP21967, 2 hours.

In the case of `CO[C@H]1[C@@H](O)[C@H](C)C[C@H](C)/C=C/C=C/C=C(\C)[C@@H](c2c[nH]c3c(C)cccc23)C[C@@H]2CC[C@@H](C)[C@@](O)(O2)C(=O)C(=O)N2CCCC[C@H]2C(=O)O[C@H]([C@H](C)C[C@@H]2CC[C@@H](O)[C@H](OC)C2)C[C@H](O)[C@H](C)/C=C(\C)[C@H]1O` [AP21967], in assay [1] (800 nM AP21967, 37° C.), the “time after which recruitment of fluorescence to the nuclei is visible” value was determined as 2 min and the “time to maximum response (recruitment to nuclei)” value is given as “approximately 10 minutes”. Besides, in assay [1] (setting [9]), the “increase of signal from immobile EGFP-labelled components relative to untreated cells” value is listed as “approximately 2 fold”. Moreover, the “time after which EGFP labelling of aggregates is clearly visible” value in assay [2] was 15 min. The “time after which recruitment of fluorescence to F-actin aggregates is visible” value in assay [3] (800 nM AP21967, 37° C.) turned out to be 2 min. Also, the “increase of signal from immobile EGFP-labelled components relative to untreated cells” value in assay [3] (setting [9]) is listed as “approximately 3 fold”. For the same compound, the “EGFP distribution in micrograph (FIG. 23b)” value in assay [4] is reported as “recruited to the plasma membrane”. The “EGFP distribution in micrograph (FIG. 24b)” value in assay [5] is listed as “recruited to the plasma membrane”.

For the compound `CC[C@H](C(=O)N1CCCCC1C(=O)O[C@H](CCc1ccc(OC)c(OC)c1)c1cccc(OCC(=O)NCCCN(C)C)c1)c1cc(OC)c(OC)c(OC)c1` (stereo partly drawn) [AP21998], the “EGFP distribution in micrograph (FIG. 7c)” value in assay [6] (5 μM AP21998 for 2 hours after 800 nM AP21967 for 60 minutes, continued presence of AP21967) was “The bright aggregates have dispersed into the cytoplasm”. In addition, the “EGFP-label remaining on the F-actin aggregates” value in assay [6] (setting [10]) was “no EGFP-label remained on the aggregates”. Besides, the EC50 in assay [6] (co-treated with 800 nM AP21967, 2 hours, 37° C., read-out: EC50 for the prevention of recruitment / removal of EGFP-labelled components from the F-actin aggregates) was around 1100 nM; in assay [7] it was around 200 nM; in assay [8] (co-treated with 800 nM AP21967, 2 hours, 37° C., read-out: EC50 for the prevention of recruitment / removal of EGFP-labelled components from the nuclear compartment) it was around 1800 nM. In addition, the “EGFP distribution in micrograph (FIG. 15c)” value in assay [8] (800 nM AP21967 + 5 μM AP21998 for 2 hours) was “no nuclear accumulation”. In assay [8] (setting [10]), the “EGFP-label remaining in the nuclei” value is “no EGFP-label remained in the nuclei”.
